Laboratory results: US20110294741A1, “USE OF COMPOUNDS IN THE TREATMENT OF TAU-INDUCED CYTOTOXICITIES” (Bioalvo-Servicos, Investigacao e Desenvolvimento em …, priority 2008, published 2011)

What was measured:
[1] = Partition of peptide into lipid bilayer vesicles (fluorescence titration); format: physicochemical
Source text: Vesicles of zwiterionic lipid, POPC ([…]), and POPC with negative lipid, POPG in different proportions: 80:20 ▪, 50:50 and 30:70 ? until 100% POPG ( ? ). The unit of 1/1 w on the y axis is the ratio between fluorescence intensities.
Vesicles of zwiterionic lipid, POPC, and POPC with negative lipid, POPG, in the proportion 50 POPC: 50 POPG.
As can be observed, the fluorescence intensity of the phenolic moiety increases due to the insertion in the apolar environment created by the lipids. Negative lipids (other symbols) inhibit the interaction due to charge repulsion. […] KTP-NH2 is therefore suitable for i.v. or i.p. administration. KTP-NH2 diffuses through the blood stream, reaches the BBB, and translocates.
In order to confirm that these plasma-stable KTP-NH2 derivatives maintained their lipophilicity, their potential interaction with human cell membranes was assessed. Again, we performed biophysical studies using fluorescent methodologies (Santos N. C., Prieto M. and Castanho M. A. 2003. Quantifying molecular partition into model systems of biomembranes: an emphasis on optical spectroscopic methods. Biochim Biophys Acta 1612: 123-135.).

[2] = Acrylamide quenching to determine aggregation in aqueous medium; format: physicochemical; details: acrylamide quenching of tyrosine fluorescence, Stern-Volmer plot
Protocol: The aggregation of molecules in aqueous medium, as a result of poor solubility, for example, is a critical parameter in pharmacology. […] For this purpose, acrylamide quenching studies were performed (Lakowicz J. R 1999. Principles of Fluorescence spectroscopy, Second Edition ed., Kluwer Academic/Plenum Publishers, New York; Coutinho A and Prieto M. 1993. Ribonuclease T1 and alcohol dehydrogenase fluorescence quenching by acrylamide: A laboratory experiment for undergraduate students J. Chem. Education, 70: 425-428).
Acrylamide is an aqueous quencher of the tyrosine fluorescence. When fluorescent peptides aggregate, the phenolic groups tend to cluster and remain inaccessible to hydrophilic molecules. Conversely, when no aggregation occurs, all tyrosine residues are exposed to the solvent and, therefore, accessible to the contact and quenching by acrilamide.
The fluorescence spectra were not concentration-dependent (not shown) and there was a linear dependence of fluorescence intensity on concentration (not shown).

rats (Wister, male) [3] = assay: In vivo toxicology: hepatotoxicity markers in the plasma; parameters: species or system rat; details: i.p. once a day 3.23 mg-100 g body mass, seven days
Protocol: (§1) The toxicological studies were carried out with rats (Wister, male) injected i.p. once a day with 3.23 mg-100 g body mass during seven days.
Liver is the major organ of toxicity. Blood samples were collected and the following hepatotoxicity markers were assayed in the plasma: • Alanine transaminase (ALT), • Aspartate transaminase (AST) • Alkaline phosphatase (ALP) • Total bilirubin (TBIL) • Gamma glutamyl transpeptidase (GGT)
Increased levels of the liver enzymes ALT, AST, ALP and GGT in the plasma indicate lesions in liver. Increased RBL would be a sign of faulty bilirubin production/hemolysis and/or bilirubin metabolism (in liver).

rats (Wister, male) [4] = assay: In vivo toxicology: histological alterations in liver, kidney and spleen; parameters: species or system rat; details: i.p. once a day 3.23 mg-100 g body mass, seven days, hematoxylin/eosin sections
Protocol: as §1
For investigation of histological alterations in liver, kidney and spleen hematoxylin/eosin-stained sections of fixed tissue were used. Hematoxylin/eosin-stained sections were examined by an experienced pathologist.

[5] = Metabolic stability in human liver microsomal preparation; format: in vitro ADME; details: human liver microsomes, 1-hour incubation
Source text: Many compounds can never become a drug because they are rapidly metabolized in the liver. It is important to confirm that metabolic stability is adequate to the desired distribution of compound throughout the body.

[6] = Cytotoxicity in human hepatocytes (LDH release and ATP); format: cell-based; details: LDH and ATP determination, read-out: LC50 (the source's name)
Protocol: Cytotoxicity was assessed with a cell-based assay using human hepatocytes. Cell death was assayed by quantifying plasma membrane damage or rupture through measurement of the release of lactate dehydrogenase (LDH) (Legrand, C. et al. 1992. Lactate dehydrogenase (LDH) activity of the cultured eukaryotic cells as marker of the number of dead cells in the medium. J. Biotechnol. 25: 231-243), a stable cytoplasmic enzyme present in most cells. Determination of cell viability was performed by quantifying ATP (Cree I. A and Andreotti P. E. 1997. Measurement of cytotoxicity by ATP-based luminescence assay in primary cell cultures and cell lines. Toxicology in vitro, 11: 553-556), a marker for cell viability because it is present in all metabolically active cells and the concentration declines very rapidly when the cells undergo necrosis or apoptosis.

[7] = Plasma serum stability of KTP-NH2 analogues; format: in vitro ADME; details: Human Serum, test concentration 400 uM, 1-hour incubation
Protocol: In order to increase the potential of KTP-NH2 as a drug for systemic administration, derivatives with improved plasma stability were generated, and tested, including different isomers of KTP-NH2 and methylated versions of KTP-NH2 isomers: • L-Tyrosyl-D-Arginine-NH2 • D-Tyrosyl-D-Arginine-NH2 • D-Tyrosyl-L-Arginine-NH2 • Methyl-L-Tyrosyl-L-Arginine-NH2 • Methyl-L-Tyrosyl-D-Arginine-NH2
These analogues were tested for plasma serum stability, in comparison with KTP-NH2.

Structure (SMILES): N=C(N)NCCCC(NC(=O)C(N)Cc1ccc(O)cc1)C(N)=O [KTP-NH2, L-Tyr-L-Arg-NH2]
- partition coefficient for POPC, compared with KTP-OH ([1]; POPC membranes, KTP-OH value from Lopes et al 2006): significantly superior to the one of KTP-OH
- local concentration in the model membrane of mammals versus surrounding bulk aqueous phase ([1]; POPC vesicles, numerical treatment of fluorescence titration data): approx. 2,500 fold
- aggregation in aqueous medium [2]: No evidence was found for aggregation
- GGT in plasma (rats (Wister, male) [3]): below the detection limit
- hepatotoxicity markers in plasma (AST, ALT, ALP, total bilirubin) versus control animals (rats (Wister, male) [3]): no toxic effects were detected
- histological alterations in kidney and spleen (rats (Wister, male) [4]): no histological modifications were found
- histological alterations in liver (rats (Wister, male) [4]): no signs of hepatic necrosis
- compound remained after incubation with microsomal preparation [5]: 93%
- CC50 [6]: > 125 µM
- Mean Parent Remaining (%) [7]: 14.00%
